What was measured:
[1] = system: HCC1806; experiment: MTT cell viability assay, HCC1806; format: cell-based; conditions: HCC1806, Triple Negative Breast Cancer, 24 or 48 or 72 hours
Description: (§1) Briefly cancer cells incubated with Up compounds for the period of 24 or 48 or 72 hours and the cell viability was measured using MTT assay. IC50 of compounds listed in Table1.

[2] = system: PC-3; experiment: MTT cell viability assay, PC-3; format: cell-based; conditions: PC-3, Prostate Cancer, 24 or 48 or 72 hours
Description: as §1

[3] = system: OVCAR3; experiment: MTT cell viability assay, OVCAR3; format: cell-based; conditions: OVCAR3, Ovarian Cancer, 24 or 48 or 72 hours
Description: as §1

[4] = system: HFF(primary human foreskin fibroblast); experiment: MTT cell viability assay, HFF; format: cell-based; conditions: Normal Cell line, 24 or 48 or 72 hours
Description: as §1

[5] = system: A2780; experiment: MTT cell viability assay, A2780; format: cell-based; conditions: A2780, Ovarian Cancer, 24 or 48 or 72 hours
Description: as §1

[6] = system: HeLa; experiment: MTT cell viability assay, HeLa; format: cell-based; conditions: Cervical Cancer, 24 or 48 or 72 hours
Description: as §1

[7] = system: K48-linked polyubiquitinated proteins in HeLa cells; experiment: anti-K48-linked ubiquitin immunoblot in HeLa cells; format: cell-based; conditions: 4 hr treatment
Excerpt: Accumulation of poly ubiquitinated proteins is a general phenomenon of proteasome inhibition. We examined the impact of these compounds on the levels of polyubiquitinated proteins in HeLa cells by anti-K48-linked ubiquitin immunoblot analysis.

[8] = system: ES2; experiment: MTT cell viability assay, ES2; format: cell-based, human; conditions: ES2, Ovarian Cancer, 24 or 48 or 72 hours
Description: as §1

[9] = system: OVCAR5; experiment: MTT cell viability assay, OVCAR5; format: cell-based; conditions: OVCAR5, Ovarian Cancer, 24 or 48 or 72 hours
Description: as §1

[10] = system: OV2008; experiment: MTT cell viability assay, OV2008; format: cell-based; conditions: OV2008, Ovarian Cancer, 24 or 48 or 72 hours
Description: as §1

[11] = system: MM.1S; experiment: MTT cell viability assay, MM.1S; format: cell-based; conditions: Multiple Myeloma, 24 or 48 or 72 hours
Description: as §1

[12] = system: HepG2; experiment: MTT cell viability assay, HepG2; format: cell-based; conditions: HepG2, Liver Cancer, 24 or 48 or 72 hours
Description: as §1

[13] = system: IkB-a in HeLa cells; experiment: IkB-a stabilization in HeLa cells with TNF-a; format: cell-based; conditions: in the presence of TNF-a
Excerpt: (§2) NFκB is constitutively activated in many cancers including high grade cervical intraepithelial neoplasia (CIN) and cervical cancer.

[14] = system: human ovarian cancer ES2 xenograft (ES2-Lu); experiment: ES2-Lu ovarian cancer xenograft, intraperitoneal; format: in vivo; conditions: nude female mice, 10 mg/Kg on alternate days for two weeks
Description: To test the efficacy of Up109 to treat the human ovarian cancer ES2 xenograft model, the luciferase-expressing ES2 cells (ES2-Lu) were inoculated into peritoneal cavity of nude female mice (i.e. orthotopically). Two days after inoculation the mice were imaged for their basal luminescence activity and then randomized into two groups (n=10). First group was treated with the vehicle and the second group was treated with Up109 (10 mg/Kg) on alternate days for two weeks. Mice were imaged after the first and second week of treatment for their luciferase activity. […] Tumor burden in the vehicle group mice was excessive and sacrificed at the end of the treatment (FIG. 10).

[15] = Dose limiting toxicity studies; format: in vivo
Description: To identify the optimal dose that induces a clinical effect and operates with acceptable toxicity a set of experiments has been performed on female Balb/C strain mice with Up109. Individual groups of mice (n=3) were injected i.p. with increasing single doses of Up109 (3, 10, 20, 40 and 100 mg/Kg) and the endpoint evaluations included clinical observations and body weights. […] Another experiment was done with repeated i.p. doses of Up109 (40 mg/Kg, n=5) every other day for two weeks.

[16] = system: LNCaP; experiment: MTT cell viability assay, LNCaP; format: cell-based; conditions: Prostate Cancer, 24 or 48 or 72 hours
Description: as §1

[17] = system: RPMI8226; experiment: MTT cell viability assay, RPMI8226; format: cell-based; conditions: RPMI8226, Multiple Myeloma, 24 or 48 or 72 hours
Description: as §1

[18] = system: SKOV3-TR; experiment: MTT cell viability assay, SKOV3-TR; format: cell-based
Description: as §1

[19] = system: SKOV3; experiment: MTT cell viability assay, SKOV3; format: cell-based; conditions: SKOV3, Ovarian Cancer, 24 or 48 or 72 hours
Description: as §1

[20] = system: NFκB reporter in 293 cells; experiment: NFκB reporter assay in 293 cells stimulated with TNF-a; format: cell-based; conditions: 293 cells carrying NFκB reporter construct
Excerpt: as §2

[21] = system: HS578T; experiment: MTT cell viability assay, HS578T; format: cell-based; conditions: Triple Negative Breast Cancer, 24 or 48 or 72 hours
Description: as §1

[22] = system: A2780 cancer cells; experiment: Colony formation, A2780; format: cell-based; conditions: corresponding to IC50 values
[23] = system: DU145; experiment: MTT cell viability assay, DU145; format: cell-based; conditions: DU145, Prostate Cancer, 24 or 48 or 72 hours
Description: as §1

[24] = target: T1, RPN13 (Homo sapiens, UniProt Q16186); experiment: RA190B probe competition assay, HeLa cell lysate; format: binding; conditions: HeLa cell lysate pretreated with compound
T1 construct: HeLa cell lysate was pretreated with Up109 or Up117; endogenous in cells; host or cells: HeLa cell lysate
Description: To identify the cellular target, a competition assay was performed using RA190B probe. […] We used RA190B as a probe to determine the Up compound binding to RPN13. HeLa cell lysate was pretreated with Up109 or Up117 and then subsequently treated with RA190B. Lysate was denatured under reduced conditions and proteins were separated on a gel and probed with HRPStreptavidin.

[25] = system: ES2 cells; experiment: Annexin-V staining by FACS of ES2 cells; format: cell-based, human; conditions: 12 h
Description: FIG. 8: (A) CHOP-10 quantification in ES2 cells treated with Up109 for 12 h; (B) Annexin-V staining by FACS analysis of ES2 cells treated with Up109 and Bortezomib for 12 h.
Accumulation of unfolded proteins upon the inhibition of proteasome function rapidly induces endoplasmic reticulum (ER) stress. ER stress triggers an evolutionarily conserved series of signal-transduction events, which constitute the unfolded protein response (UPR). The UPR attempts to restore protein homeostasis by eliminating the accumulated unfolded proteins in the ER; however, if protein homeostasis cannot be restored, apoptosis is triggered. C/EBP homologous protein (CHOP) is elevated at the onset of UPR-induced programmed cell death.

T1 sequence (Q16186 whole entry): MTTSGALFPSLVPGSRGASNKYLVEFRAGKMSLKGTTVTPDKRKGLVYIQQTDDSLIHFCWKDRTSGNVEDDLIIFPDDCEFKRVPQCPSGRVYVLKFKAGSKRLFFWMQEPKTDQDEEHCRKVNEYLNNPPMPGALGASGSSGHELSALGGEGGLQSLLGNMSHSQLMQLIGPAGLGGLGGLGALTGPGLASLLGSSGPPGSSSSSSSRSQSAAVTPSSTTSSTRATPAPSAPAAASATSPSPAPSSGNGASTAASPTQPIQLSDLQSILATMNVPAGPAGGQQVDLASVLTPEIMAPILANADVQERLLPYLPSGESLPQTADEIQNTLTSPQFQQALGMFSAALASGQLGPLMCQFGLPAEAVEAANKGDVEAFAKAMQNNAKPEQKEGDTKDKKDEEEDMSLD

In the case of `C=CC(=O)N1CCC2(CC1)C(=Cc1ccc([N+](=O)[O-])cc1)C(=O)C2=Cc1ccc([N+](=O)[O-])cc1` [Up109], the IC50 [1] is reported as 42 nM, the IC50 [2] is reported as 57 nM and the IC50 [3] is reported as 21 nM. For the same molecule, the IC50 [4] was greater than 1250 nM, the IC50 [5] was 13 nM and the IC50 [6] was 75 nM. For the same molecule, the “levels of K48-linked polyubiquitinated proteins” value [7] was “dramatically increased”, the IC50 [8] was 22 nM and the IC50 [9] was 19 nM. It also gave an IC50 [10] of 34 nM, an IC50 [11] of 35 nM and an IC50 [12] of 118 nM. For the same molecule, the “stabilization of IkB-a” value [13] was “Stabilization of IkB-a was observed”, the “weight loss and observable side effects” value [14] was “no weight loss and any observable side effects” and the “tumor burden compared to the vehicle” value ([14]; ES2-Lu i.p.) was “significantly reduced the tumor burden”. The “toxicities/weight loss, repeated dose” value ([15]; Balb/C mice, i.p. 40 mg/Kg every other day for two weeks) was “No observable toxicities/weight loss”, the “clinical observations and body weights, single dose” value ([15]; female Balb/C mice, single i.p. doses 3, 10, 20, 40 and 100 mg/Kg) was “No clinically apparent sign of adverse effect” and the IC50 [16] was 65 nM. The IC50 [17] was 123 nM, the IC50 ([18]; SKOV3-TR, Ovarian Cancer (taxol resistant), MTT, 24 or 48 or 72 hours) was 58 nM and the “difference in activity between SKOV3 and its taxol resistant line (SKOV3-TR)” value ([18]; SKOV3 vs SKOV3-TR) was “similarly active”. The IC50 [19] was 45 nM, the “NFκB reporter activity after stimulation with TNF-a” value [20] was “significant dose-dependent decrease” and the IC50 [21] was 17 nM. For the same molecule, the colony formation [22] was “significantly blocked colony formation”, the IC50 [23] was 77 nM and the “competition with RA190B for binding to RPN13” value [24] was “disappearance of RA190B labeling”. The “Annexin-V positive cells (apoptosis)” value [25] was “elevation of apoptosis”.
